Assay results as given in patent US6686352B2, “Substituted imidazo [1,5-a] pyrimido [5,4-d] [1] benzazepine derivatives” (Hoffmann-La Roche Inc., priority 2001, dated 2004).

molecular target: T1, GABA A receptor α5β3γ2 (α5 subunit) (Rattus norvegicus, UniProt P18508+P19969); assay: [3H]flumazenil ([3H]Ro 15-1788) competition binding assay, membranes of SF9 cells expressing rat GABA A receptors; conditions: displacement of [3H]Ro 15-1788 (0.5 nM for α5), 1 hour at 4° C., means of two determinations; especially preferred compounds
T1 construct: expressed in transfected cells; host or cells: SF9 insect cells (membrane preparation)
Method: The affinity of compounds at GABA A receptor subtypes was measured by competition for [^3H]flumazenil ([^3H]Ro 15-1788) (85 Ci/mmol; Amersham) binding to SF9 cells expressing rat receptors of composition α1β3γ2, α2β3γ2, α3β3γ2 and α5β3γ2.
Cell pellets were suspended in Krebs-tris buffer (4.8 mM KCl, 1.2 mM CaCl2, 1.2 mM MgCl2, 120 mM NaCl, 15 mM Tris; pH 7.5; binding assay buffer), homogenized by polytron for ca. 15 sec on ice and centrifuged in UZ for 30 min at 4° C. (100000 g; rotor: TFT 4594=[…]). The cell pellets were re-suspended in Krebs-tris buffer and homogenized by polytron for ca. 15 sec on ice. Aliquots of 1 ml were prepared, protein was measured (Bradford method) and the resulting membrane aliquots were stored at −70° C.
Radioligand binding assays were carried out in a volume of 200 μL (96-well plates) which contained 100 μL of cells, [^3H]Ro 15-1788 at a concentration of 1 nM for (α1, α2, α3 subunits and 0.5 nM for α5 subunits and the test compound in the range of 10^−10−3×10^−6 M. Nonspecific binding was defined by 10^−5 M diazepam and typically represented less than 5% of the total binding. Assays were incubated to equilibrium for 1 hour at 4° C. and harvested onto GF/C uni-filters (Packard) by filtration using a Packard harvester and washing with ice-cold wash buffer (50 mM Tris; pH 7.5). After drying, filter-retained radioactivity was detected by liquid scintillation counting. Ki values were calculated using Excel-Fit (Microsoft) and are the means of two determinations.

**Q.** Which Ki does the source give for “3-Bromo-6-methyl-9H-imidazo[1,5-a]pyrimido[5,4-d][1]benzazepine-10-carboxylic Acid Ethyl Ester [Example 22]” here?
**A.** 12.5 nM

**Q.** With “3-Fluoro-6-(1-methylethyl)-9H-imidazo[1,5-a]pyrimido[5,4-d][1]benzazepine-10-carboxylic Acid Ethyl Ester [Example 10]” as the compound, how does the Ki read?
**A.** 11.2 nM

**Q.** Which Ki does the source give for “3-Fluoro-6-methyl-9H-imidazo[1,5-a]pyrimido[5,4-d][1]benzazepine-10-carboxylic Acid Ethyl Ester [Example 8]” here?
**A.** 4.6 nM

**Q.** Which Ki does the source give for “3-Fluoro-6-propyl-9H-imidazo[1,5-a]pyrimido[5,4-d][1]benzazepine-10-carboxylic Acid Ethyl Ester [Example 9]” here?
**A.** 8 nM

**Q.** For “6-(1-Methylethyl)-9H-imidazo [1,5-a]pyrimido[5,4-d][1]benzazepine-10-carboxylic Acid Ethyl Ester [Example 3]”, which Ki is on record?
**A.** 8.9 nM

**Q.** With “6-Cyclopropyl-3-fluoro-9H-imidazo[1,5-a]pyrimido[5,4-d][1]benzazepine-10-carboxylic Acid Ethyl Ester [Example 11]” as the compound, how does the Ki read?
**A.** 7.8 nM

**Q.** Which Ki does the source give for “6-Cyclopropyl-9H-imidazo[1,5-a]pyrimido[5,4-d][1]benzazepine-10-carboxylic Acid Ethyl Ester [Example 4]” here?
**A.** 7.6 nM

**Q.** Which Ki does the source give for “6-Methyl-9H-imidazo[1,5-a]pyrimido[5,4-d][1]benzazepine-10-carboxylic Acid Ethyl Ester [Example 29]” here?
**A.** 3.8 nM

**Q.** Which Ki does the source give for “6-Propyl-9H-imidazo[1,5-a]pyrimido[5,4-d][1]benzazepine-10-carboxylic Acid Ethyl Ester [Example 2]” here?
**A.** 5.5 nM

**Q.** For “6-[(4-Methoxyphenyl)Methyl]-9H-imidazo[1,5-a]pyrimido[5,4-d][1]benzazepine-10-carboxylic Acid Ethyl Ester [Example 6]”, which Ki is on record?
**A.** 13.8 nM

**Q.** Which Ki does the source give for “9H-Imidazo[1,5-a]pyrimido[5,4-d][1]benzazepine-10-carboxylic Acid Ethyl Ester [Example 1]” here?
**A.** 3.7 nM

system: not given; assay: not given; conditions: not given

**Q.** Which melting point does the source give for CCOC(=O)c1ncnc2c1Cc1cnc(C(C)(C)C)n1-c1cc(F)ccc1-2 here?
**A.** 233 °C

**Q.** With CCOC(=O)c1ncnc2c1Cc1cnc(Cc3ccc(OC)cc3)n1-c1cc(F)ccc1-2 as the compound, how does the melting point read?
**A.** 185 °C

**Q.** Which melting point does the source give for CCOC(=O)c1ncnc2c1Cc1cnc(Cc3c[nH]c4ccccc34)n1-c1cc(F)ccc1-2 here?
**A.** 230 °C

**Q.** With CCOC(=O)c1ncnc2c1Cc1cnc(C(C)C)n1-c1cc(Cl)ccc1-2 as the compound, how does the melting point read?
**A.** 192 °C

**Q.** With CCOC(=O)c1ncnc2c1Cc1cnc(C3CC3)n1-c1cc(Cl)ccc1-2 as the compound, how does the melting point read?
**A.** 230 °C

**Q.** Which melting point does the source give for CCOC(=O)c1ncnc2c1Cc1cnc(C(C)(C)C)n1-c1cc(Cl)ccc1-2 here?
**A.** 180 °C

**Q.** For CCOC(=O)c1ncnc2c1Cc1cnc(Cc3ccc(OC)cc3)n1-c1cc(Cl)ccc1-2, which melting point is on record?
**A.** 192 °C

**Q.** For CCOC(=O)c1ncnc2c1Cc1cnc(Cc3c[nH]c4ccccc34)n1-c1cc(Cl)ccc1-2, which melting point is on record?
**A.** 120 °C

**Q.** For CCOC(=O)c1ncnc2c1Cc1cncn1-c1cc(Br)ccc1-2, which melting point is on record?
**A.** 210 °C

**Q.** For CCOC(=O)c1ncnc2c1Cc1cnc(C3CC3)n1-c1cc(Br)ccc1-2, which melting point is on record?
**A.** 230 °C

**Q.** Which melting point does the source give for CCOC(=O)c1ncnc2c1Cc1cnc(Cc3ccc(OC)cc3)n1-c1cc(Br)ccc1-2 here?
**A.** 180 °C

**Q.** With CCOC(=O)c1ncnc2c1Cc1cnc(C)n1-c1cc(C)ccc1-2 as the compound, how does the melting point read?
**A.** 200 °C

**Q.** Which melting point does the source give for CCCc1ncc2n1-c1cc(C)ccc1-c1ncnc(C(=O)OCC)c1C2 here?
**A.** 250 °C

**Q.** For CCOC(=O)c1ncnc2c1Cc1cnc(C3CC3)n1-c1cc(C)ccc1-2, which melting point is on record?
**A.** 250 °C

**Q.** With CCOC(=O)c1ncnc2c1Cc1cnc(-c3ccccc3)n1-c1ccccc1-2 as the compound, how does the melting point read?
**A.** 244 to 246 °C

**Q.** Which melting point does the source give for Cc1ncc2n1-c1ccccc1-c1ncnc(C(=O)O)c1C2 here?
**A.** 285 to 287 °C

**Q.** For Cc1ncc2n1-c1ccccc1-c1ncnc(-c3nc(C4CC4)no3)c1C2, which melting point is on record?
**A.** 216 to 218 °C

**Q.** For CCOC(=O)c1ncnc2c1Cc1cnc(C)n1-c1cc(C)c(C)cc1-2, which melting point is on record?
**A.** 210 °C

**Q.** For CCCc1ncc2n1-c1cc(C)c(C)cc1-c1ncnc(C(=O)OCC)c1C2, which melting point is on record?
**A.** 213 °C

**Q.** For CCOC(=O)c1ncnc2c1Cc1cnc(Cc3ccc(OC)cc3)n1-c1cc(C)c(C)cc1-2, which melting point is on record?
**A.** 150 °C

**Q.** Which melting point does the source give for CCOC(=O)c1ncnc2c1Cc1cnc(Cc3c[nH]c4ccccc34)n1-c1cc(C)c(C)cc1-2 here?
**A.** 135 °C

**Q.** With CCOC(=O)c1ncnc2c1Cc1cnc(C(C)(C)C)n1-c1ccccc1-2 as the compound, how does the melting point read?
**A.** 250 °C

**Q.** For CCOC(=O)c1ncnc2c1Cc1cnc(Cc3c[nH]c4ccccc34)n1-c1ccccc1-2, which melting point is on record?
**A.** 120 °C
